Read-outs that look alike come from different tables or passages of the source.
Key:
[1] = test system: patients with type 2 diabetes mellitus, chronic kidney disease, and additional cardiovascular risk; settings: T2DM + CKD patients
[2] = test system: patients with type 2 diabetes mellitus recently hospitalized for worsening heart failure; settings: for Difference (95% CI) in least-squares mean change in KCCQ-12 score to month 4 / Difference (95% CI) in least-squares mean change in estimated GFR: sotagliflozin minus placebo
[3] = sotagliflozin vs placebo, listed as sotagliflozin
[4] = sotagliflozin vs placebo, time-to-event analysis
[5] = T2DM + worsening heart failure, N = 608
[6] = T2DM + worsening heart failure, N = 608, listed as sotagliflozin
[7] = sotagliflozin vs. placebo, T2DM + worsening heart failure
[8] = sotagliflozin vs. placebo, T2DM + worsening heart failure, listed as sotagliflozin

CCOc1ccc(Cc2cc([C@@H]3O[C@H](SC)[C@@H](O)[C@H](O)[C@H]3O)ccc2Cl)cc1 [Sotagliflozin, (2S,3R,4R,5S,6R)-2-(4-chloro-3-(4-ethoxybenzyl)phenyl)-6-(methylthio)tetrahydro-2H-pyran-3,4,5-triol]
Primary end point: total no. of deaths from cardiovascular causes, hospitalizations for HF, and urgent visits for HF - event rate ([1]; 200 mg once daily increased to 400 mg, N = 5292, median follow-up 16 months): 5.6 no. of events/100 patient-yr
Deaths from any cause - event rate ([1]; N = 5292): 3.5 no. of events/100 patient-yr
Deaths from any cause - no. of events ([1]; N = 5292): 246
Deaths from cardiovascular causes - event rate ([1]; N = 5292): 2.2 no. of events/100 patient-yr
Deaths from cardiovascular causes - no. of events ([1]; N = 5292): 155
First occurrence of a sustained decrease of ≥50% in the eGFR from baseline for ≥30 days, long-term dialysis, renal transplantation, or sustained eGFR of <15 ml/min/1.73 m2 for ≥30 days - event rate ([1]; N = 5292): 0.5 no. of events/100 patient-yr
First occurrence of a sustained decrease of ≥50% in the eGFR from baseline for ≥30 days, long-term dialysis, renal transplantation, or sustained eGFR of <15 ml/min/1.73 m2 for ≥30 days - no. of events ([1]; N = 5292): 37
Primary end point: total no. of deaths from cardiovascular causes, hospitalizations for HF, and urgent visits for HF - no. of events ([1]; N = 5292): 400
Total no. of deaths from cardiovascular causes, hospitalizations for HF, nonfatal myocardial infarctions, and nonfatal strokes - event rate ([1]; N = 5292): 7.6 no. of events/100 patient-yr
Total no. of deaths from cardiovascular causes, hospitalizations for HF, nonfatal myocardial infarctions, and nonfatal strokes - no. of events ([1]; N = 5292): 541
Total no. of deaths from cardiovascular causes, hospitalizations for HF, urgent visits for HF, and events of HF during hospitalization - event rate ([1]; N = 5292): 6.4 no. of events/100 patient-yr
Total no. of deaths from cardiovascular causes, hospitalizations for HF, urgent visits for HF, and events of HF during hospitalization - no. of events ([1]; N = 5292): 453
Total no. of deaths from cardiovascular causes, nonfatal myocardial infarctions, and nonfatal strokes - event rate ([1]; N = 5292): 4.8 no. of events/100 patient-yr
Total no. of deaths from cardiovascular causes, nonfatal myocardial infarctions, and nonfatal strokes - no. of events ([1]; N = 5292): 343
Total no. of hospitalizations for HF and urgent visits for HF - event rate ([1]; N = 5292): 3.5 no. of events/100 patient-yr
Total no. of hospitalizations for HF and urgent visits for HF - no. of events ([1]; N = 5292): 245
Deaths from any cause - Hazard Ratio (95% CI) ([1]; sotagliflozin vs placebo): 0.99 (0.83-1.18)
Deaths from cardiovascular causes - Hazard Ratio (95% CI) ([1]; sotagliflozin vs placebo): 0.90 (0.73-1.12)
Primary end point: total no. of deaths from cardiovascular causes, hospitalizations for HF, and urgent visits for HF - Hazard Ratio (95% CI) ([1]; sotagliflozin vs placebo): 0.74 (0.63-0.88)
Total no. of deaths from cardiovascular causes, hospitalizations for HF, nonfatal myocardial infarctions, and nonfatal strokes - Hazard Ratio (95% CI) ([1]; sotagliflozin vs placebo): 0.72 (0.63-0.83)
Total no. of deaths from cardiovascular causes, hospitalizations for HF, urgent visits for HF, and events of HF during hospitalization - Hazard Ratio (95% CI) ([1]; sotagliflozin vs placebo): 0.76 (0.64-0.89)
Total no. of deaths from cardiovascular causes, nonfatal myocardial infarctions, and nonfatal strokes - Hazard Ratio (95% CI) ([1]; sotagliflozin vs placebo): 0.77 (0.65-0.91)
Total no. of hospitalizations for HF and urgent visits for HF - Hazard Ratio (95% CI) ([1]; sotagliflozin vs placebo): 0.67 (0.55-0.82)
Deaths from cardiovascular causes - Hazard Ratio (95% CI) [1, 3]: 0.90
Primary end point: total no. of deaths from cardiovascular causes, hospitalizations for HF, and urgent visits for HF - Hazard Ratio (95% CI) [1, 3]: 0.74
Total no. of hospitalizations for HF and urgent visits for HF - Hazard Ratio (95% CI) [1, 3]: 0.67
Original coprimary end point: first occurrence of death from cardiovascular causes or hospitalization for heart failure - hazard ratio [1, 4]: 0.77
Original coprimary end point: first occurrence of death from cardiovascular causes, nonfatal myocardial infarction, or nonfatal stroke - hazard ratio [1, 4]: 0.84
Deaths from any cause - rate [2, 5]: (13.5) events per 100 person-years of follow-up
Deaths from any cause - total no. of events [2, 5]: 65
Deaths from cardiovascular causes - rate [2, 5]: (10.6) events per 100 person-years of follow-up
Deaths from cardiovascular causes - total no. of events [2, 5]: 51
Deaths from cardiovascular causes, hospitalizations and urgent visits for heart failure, and events of heart failure during hospitalization - rate [2, 5]: (54.7) events per 100 person-years of follow-up
Deaths from cardiovascular causes, hospitalizations and urgent visits for heart failure, and events of heart failure during hospitalization - total no. of events [2, 5]: 263
Deaths from cardiovascular causes, hospitalizations for heart failure, nonfatal myocardial infarctions, and nonfatal strokes - rate [2, 5]: (51.4) events per 100 person-years of follow-up
Deaths from cardiovascular causes, hospitalizations for heart failure, nonfatal myocardial infarctions, and nonfatal strokes - total no. of events [2, 5]: 247
Hospitalizations and urgent visits for heart failure - rate [2, 5]: (40.4) events per 100 person-years of follow-up
Hospitalizations and urgent visits for heart failure - total no. of events [2, 5]: 194
Least-squares mean change in estimated GFR ([2]; T2DM + worsening heart failure, N = 608, during follow-up): −0.34 ml/min/1.73 m^2
Deaths from any cause - rate [2, 6]: 13.5 events per 100 person-years of
Deaths from cardiovascular causes - rate [2, 6]: 10.6 events per 100 person-years of
Least-squares mean change in KCCQ-12 score to month 4 ([2]; T2DM + worsening heart failure, N = 608, scores range from 0 to 100): 17.7
Primary end point: deaths from cardiovascular causes and hospitalizations and urgent visits for heart failure - total no. of events ([2]; T2DM patients with recent worsening heart failure, 200 mg once daily increased to 400 mg, N = 608, median follow-up 9.0 months): 245
Primary end point: deaths from cardiovascular causes and hospitalizations and urgent visits for heart failure - rate ([2]; T2DM patients with recent worsening heart failure, N = 608): (51.0) events per 100 person-years of follow-up
Primary end point: deaths from cardiovascular causes and hospitalizations and urgent visits for heart failure - rate ([2]; T2DM patients with recent worsening heart failure, N = 608, listed as sotagliflozin): 51.0 events per 100 person-years of
Absolute difference in rate of primary end-point events ([2]; sotagliflozin group vs placebo group (51.0 vs 76.3), 95% CI, 5.1 to 45.6): 25.3 events per 100 patient-years
Difference (95% CI) in least-squares mean change in KCCQ-12 score to month 4 [2]: 4.1 (1.3 to 7.0) points
Difference (95% CI) in least-squares mean change in estimated GFR [2]: −0.16 (−1.30 to 0.98) ml/min/1.73 m^2
Difference (95% CI) in least-squares mean change in KCCQ-12 score to month 4 ([2]; listed as sotagliflozin): 4.1 points
Difference (95% CI) in least-squares mean change in estimated GFR ([2]; listed as sotagliflozin): −0.16 ml/min/1.73 m^2
Total number of deaths from cardiovascular causes and hospitalizations for heart failure, excluding urgent visits for heart failure - hazard ratio ([2]; sotagliflozin vs. placebo, 95% CI, 0.53 to 0.88): 0.68
Deaths from any cause - Hazard Ratio (95% CI) [2, 7]: 0.82 (0.59 to 1.14)
Deaths from cardiovascular causes - Hazard Ratio (95% CI) [2, 7]: 0.84 (0.58 to 1.22)
Deaths from cardiovascular causes, hospitalizations and urgent visits for heart failure, and events of heart failure during hospitalization - Hazard Ratio (95% CI) [2, 7]: 0.68 (0.54 to 0.86)
Deaths from cardiovascular causes, hospitalizations for heart failure, nonfatal myocardial infarctions, and nonfatal strokes - Hazard Ratio (95% CI) [2, 7]: 0.72 (0.56 to 0.92)
Hospitalizations and urgent visits for heart failure - Hazard Ratio (95% CI) [2, 7]: 0.64 (0.49 to 0.83)
Primary end point: deaths from cardiovascular causes and hospitalizations and urgent visits for heart failure - Hazard Ratio (95% CI) [2, 7]: 0.67 (0.52 to 0.85)
Deaths from any cause - Hazard Ratio (95% CI) [2, 8]: 0.82
Deaths from cardiovascular causes - Hazard Ratio (95% CI) [2, 8]: 0.84
Primary end point: deaths from cardiovascular causes and hospitalizations and urgent visits for heart failure - Hazard Ratio (95% CI) [2, 8]: 0.67
Original primary end point: first occurrence of either death from cardiovascular causes or hospitalization for heart failure - hazard ratio ([2]; sotagliflozin vs. placebo, time-to-event analysis, 95% CI, 0.56 to 0.89): 0.71
Subgroup analyses of the primary efficacy end point ([2]; subgroups by geographic region, LVEF (<50% or ≥50%), timing of first dose, sex, age, renal function (FIG. 4)): consistent treatment effect

— patent US20220370485A1, “COMPOUNDS AND METHODS FOR TREATING OR PREVENTING CARDIOVASCULAR DISEASES AND CONDITIONS” (Lexicon Pharmaceuticals, Inc., priority 2021, published 2022)
